Assay results published in patent publication US20100298141A1, “SUBSTITUTED PYRIDINE N-OXIDE HERBICIDES” (E. I. DU PONT DE NEMOURS AND COMPANY, priority 2007, published 2010).

Assays:
[1] = tested on: barnyardgrass; experiment: Test A pre-/postemergence greenhouse test; type: in vivo, Echinochloa crus-galli; settings: for Plant response rating, Barnyardgrass: 0 to 100 scale where 0 is no effect and 100 is complete control; for Barnyardgrass plant response rating: 0 to 100 scale
Method in brief: (§1)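 Each test compound, dissolved in a non-phytotoxic solvent mixture with surfactant, was sprayed directly onto seeded soil (loam/sand blend) and, at the same moment, onto seedlings carrying one to two leaves. Around ten greenhouse days later, plants were rated visually for injury relative to untreated controls.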

[2] = tested on: crabgrass; experiment: Test A pre-/postemergence greenhouse test; type: in vivo, Digitaria sanguinalis; settings: for Plant response rating, Crabgrass, Large: 0 to 100 scale where 0 is no effect and 100 is complete control; for Crabgrass, Large plant response rating: 0 to 100 scale
Method in brief: as §1

[3] = tested on: giant foxtail; experiment: Test A pre-/postemergence greenhouse test; type: in vivo, Setaria faberi; settings: for Plant response rating, Foxtail, Giant: 0 to 100 scale where 0 is no effect and 100 is complete control; for Foxtail, Giant plant response rating: 0 to 100 scale
Method in brief: as §1

[4] = tested on: morningglory; experiment: Test A pre-/postemergence greenhouse test; type: in vivo, Ipomoea spp.; settings: for Plant response rating, Morningglory: 0 to 100 scale where 0 is no effect and 100 is complete control; for Morningglory plant response rating: 0 to 100 scale
Method in brief: as §1

[5] = tested on: redroot pigweed; experiment: Test A pre-/postemergence greenhouse test; type: in vivo, Amaranthus retroflexus; settings: for Plant response rating, Pigweed: 0 to 100 scale where 0 is no effect and 100 is complete control; for Pigweed plant response rating: 0 to 100 scale
Method in brief: as §1

[6] = tested on: velvetleaf; experiment: Test A pre-/postemergence greenhouse test; type: in vivo, Abutilon theophrasti; settings: for Plant response rating, Velvetleaf: 0 to 100 scale where 0 is no effect and 100 is complete control; for Velvetleaf plant response rating: 0 to 100 scale
Method in brief: as §1

[7] = tested on: wheat; experiment: Test A pre-/postemergence greenhouse test; type: in vivo, Triticum aestivum; settings: for Plant response rating, Wheat: 0 to 100 scale where 0 is no effect and 100 is complete control; for Wheat plant response rating: 0 to 100 scale
Method in brief: as §1

[8] = tested on: corn; experiment: Test A pre-/postemergence greenhouse test; type: in vivo, Zea mays; settings: for Plant response rating, Corn: 0 to 100 scale where 0 is no effect and 100 is complete control; for Corn plant response rating: 0 to 100 scale
Method in brief: as §1

[9] = tested on: rice; experiment: Test C flooded paddy test; type: in vivo, Oryza sativa; settings: Flood
Method in brief: (§2)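 Greenhouse pots flooded to 3 cm above soil at time of treatment received compound via the water, which stayed at that level.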

[10] = tested on: umbrella sedge; experiment: Test C flooded paddy test; type: in vivo, Cyperus difformis; settings: Flood
Method in brief: as §2

[11] = tested on: duck salad; experiment: Test C flooded paddy test; type: in vivo, Heteranthera limosa; settings: Flood
Method in brief: as §2

[12] = tested on: barnyardgrass; experiment: Test C flooded paddy test; type: in vivo, Echinochloa crus-galli; settings: Flood
Method in brief: as §2

[13] = Postemergence, 500 g ai/ha, 0 is no effect, 100 is complete control
[14] = Preemergence, 125 g ai/ha, 0 no effect, 100 complete control
[15] = Preemergence, 500 g ai/ha, 0 no effect, 100 complete control
[16] = 31 g ai/ha, scale 0 to 100 (0 no effect, 100 complete control)
[17] = 62 g ai/ha, scale 0 to 100 (0 no effect, 100 complete control)
[18] = 125 g ai/ha, scale 0 to 100, 0 no effect, 100 complete control, 13 to 15 days
[19] = 250 g ai/ha, scale 0 to 100, 0 no effect, 100 complete control, 13 to 15 days

Cn1nc(C(F)(F)F)c(CS(=O)(=O)c2ccc(F)c[n+]2[O-])c1OCC(F)(F)F [Compound 106]
Plant response rating, Barnyardgrass ([1]; Postemergence, 125 g ai/ha): 40 | Barnyardgrass plant response rating [1, 13]: 70 | Barnyardgrass plant response rating [1, 14]: 40 | Barnyardgrass plant response rating [1, 15]: 90 | Plant response rating, Crabgrass, Large ([2]; Postemergence, 125 g ai/ha): 30 | Crabgrass, Large plant response rating [2, 13]: 80 | Crabgrass, Large plant response rating [2, 14]: 60 | Crabgrass, Large plant response rating [2, 15]: 80 | Plant response rating, Foxtail, Giant ([3]; Postemergence, 125 g ai/ha): 50 | Foxtail, Giant plant response rating [3, 13]: 80 | Foxtail, Giant plant response rating [3, 14]: 40 | Foxtail, Giant plant response rating [3, 15]: 80 | Plant response rating, Morningglory ([4]; Postemergence, 125 g ai/ha): 0 | Morningglory plant response rating [4, 13]: 30 | Morningglory plant response rating [4, 14]: 10 | Morningglory plant response rating [4, 15]: 50 | Plant response rating, Pigweed ([5]; Postemergence, 125 g ai/ha): 0 | Pigweed plant response rating [5, 13]: 50 | Pigweed plant response rating [5, 14]: 70 | Pigweed plant response rating [5, 15]: 80 | Plant response rating, Velvetleaf ([6]; Postemergence, 125 g ai/ha): 0 | Velvetleaf plant response rating [6, 13]: 20 | Velvetleaf plant response rating [6, 14]: 0 | Velvetleaf plant response rating [6, 15]: 60 | Plant response rating, Wheat ([7]; Postemergence, 125 g ai/ha): 0 | Wheat plant response rating [7, 13]: 0 | Wheat plant response rating [7, 14]: 0 | Wheat plant response rating [7, 15]: 0 | Plant response rating, Corn ([8]; Postemergence, 125 g ai/ha): 0 | Corn plant response rating [8, 13]: 0 | Corn plant response rating [8, 14]: 0 | Corn plant response rating [8, 15]: 0 | Plant response rating, Rice [9, 16]: 0 | Plant response rating, Rice [9, 17]: 0 | Plant response rating, Rice [9, 18]: 20 | Plant response rating, Rice [9, 19]: 25 | Plant response rating, Sedge, Umbrella [10, 16]: 0 | Plant response rating, Sedge, Umbrella [10, 17]: 0 | Plant response rating, Sedge, Umbrella [10, 18]: 0 | Plant response rating, Sedge, Umbrella [10, 19]: 30 | Plant response rating, Ducksalad [11, 16]: 0 | Plant response rating, Ducksalad [11, 17]: 50 | Plant response rating, Ducksalad [11, 18]: 60 | Plant response rating, Ducksalad [11, 19]: 80 | Plant response rating, Barnyardgrass [12, 16]: 0 | Plant response rating, Barnyardgrass [12, 17]: 0 | Plant response rating, Barnyardgrass [12, 18]: 15 | Plant response rating, Barnyardgrass [12, 19]: 20

Cn1nc(C(F)(F)F)c(CS(=O)(=O)c2ccc(F)c[n+]2[O-])c1OC(F)F [Compound 107]
Plant response rating, Barnyardgrass ([1]; Postemergence, 125 g ai/ha): 40 | Barnyardgrass plant response rating [1, 13]: 60 | Barnyardgrass plant response rating [1, 14]: 70 | Barnyardgrass plant response rating [1, 15]: 90 | Plant response rating, Crabgrass, Large ([2]; Postemergence, 125 g ai/ha): 70 | Crabgrass, Large plant response rating [2, 13]: 80 | Crabgrass, Large plant response rating [2, 14]: 60 | Crabgrass, Large plant response rating [2, 15]: 80 | Plant response rating, Foxtail, Giant ([3]; Postemergence, 125 g ai/ha): 70 | Foxtail, Giant plant response rating [3, 13]: 80 | Foxtail, Giant plant response rating [3, 14]: 60 | Foxtail, Giant plant response rating [3, 15]: 90 | Plant response rating, Morningglory ([4]; Postemergence, 125 g ai/ha): 0 | Morningglory plant response rating [4, 13]: 50 | Morningglory plant response rating [4, 14]: 0 | Morningglory plant response rating [4, 15]: 60 | Plant response rating, Pigweed ([5]; Postemergence, 125 g ai/ha): 40 | Pigweed plant response rating [5, 13]: 50 | Pigweed plant response rating [5, 14]: 40 | Pigweed plant response rating [5, 15]: 60 | Plant response rating, Velvetleaf ([6]; Postemergence, 125 g ai/ha): 0 | Velvetleaf plant response rating [6, 13]: 0 | Velvetleaf plant response rating [6, 14]: 0 | Velvetleaf plant response rating [6, 15]: 10 | Plant response rating, Wheat ([7]; Postemergence, 125 g ai/ha): 0 | Wheat plant response rating [7, 13]: 0 | Wheat plant response rating [7, 14]: 0 | Wheat plant response rating [7, 15]: 0 | Plant response rating, Corn ([8]; Postemergence, 125 g ai/ha): 0 | Corn plant response rating [8, 13]: 0 | Corn plant response rating [8, 14]: 0 | Corn plant response rating [8, 15]: 0 | Plant response rating, Rice [9, 16]: 0 | Plant response rating, Rice [9, 17]: 0 | Plant response rating, Rice [9, 18]: 0 | Plant response rating, Rice [9, 19]: 0 | Plant response rating, Sedge, Umbrella [10, 16]: 0 | Plant response rating, Sedge, Umbrella [10, 17]: 0 | Plant response rating, Sedge, Umbrella [10, 18]: 0 | Plant response rating, Sedge, Umbrella [10, 19]: 20 | Plant response rating, Ducksalad [11, 16]: 0 | Plant response rating, Ducksalad [11, 17]: 0 | Plant response rating, Ducksalad [11, 18]: 0 | Plant response rating, Ducksalad [11, 19]: 65 | Plant response rating, Barnyardgrass [12, 16]: 0 | Plant response rating, Barnyardgrass [12, 17]: 0 | Plant response rating, Barnyardgrass [12, 18]: 20 | Plant response rating, Barnyardgrass [12, 19]: 40

CC(C)c1cc[n+]([O-])c(S(=O)(=O)Cc2c(C(F)(F)F)nn(C)c2OC(F)F)c1 [Compound 110]
Plant response rating, Barnyardgrass ([1]; Postemergence, 125 g ai/ha): 60 | Barnyardgrass plant response rating [1, 13]: 80 | Barnyardgrass plant response rating [1, 14]: 90 | Barnyardgrass plant response rating [1, 15]: 100 | Plant response rating, Crabgrass, Large ([2]; Postemergence, 125 g ai/ha): 70 | Crabgrass, Large plant response rating [2, 13]: 90 | Crabgrass, Large plant response rating [2, 14]: 50 | Crabgrass, Large plant response rating [2, 15]: 100 | Plant response rating, Foxtail, Giant ([3]; Postemergence, 125 g ai/ha): 80 | Foxtail, Giant plant response rating [3, 13]: 90 | Foxtail, Giant plant response rating [3, 14]: 80 | Foxtail, Giant plant response rating [3, 15]: 100 | Plant response rating, Morningglory ([4]; Postemergence, 125 g ai/ha): 40 | Morningglory plant response rating [4, 13]: 100 | Morningglory plant response rating [4, 14]: 60 | Morningglory plant response rating [4, 15]: 100 | Plant response rating, Pigweed ([5]; Postemergence, 125 g ai/ha): 70 | Pigweed plant response rating [5, 13]: 80 | Pigweed plant response rating [5, 14]: 80 | Pigweed plant response rating [5, 15]: 100 | Plant response rating, Velvetleaf ([6]; Postemergence, 125 g ai/ha): 60 | Velvetleaf plant response rating [6, 13]: 80 | Velvetleaf plant response rating [6, 14]: 50 | Velvetleaf plant response rating [6, 15]: 100 | Plant response rating, Wheat ([7]; Postemergence, 125 g ai/ha): 20 | Wheat plant response rating [7, 13]: 60 | Wheat plant response rating [7, 14]: 30 | Wheat plant response rating [7, 15]: 70 | Plant response rating, Corn ([8]; Postemergence, 125 g ai/ha): 0 | Corn plant response rating [8, 13]: 60 | Corn plant response rating [8, 14]: 0 | Corn plant response rating [8, 15]: 60 | Plant response rating, Rice [9, 16]: 0 | Plant response rating, Rice [9, 17]: 0 | Plant response rating, Rice [9, 18]: 0 | Plant response rating, Rice [9, 19]: 0 | Plant response rating, Sedge, Umbrella [10, 16]: 0 | Plant response rating, Sedge, Umbrella [10, 17]: 0 | Plant response rating, Sedge, Umbrella [10, 18]: 0 | Plant response rating, Sedge, Umbrella [10, 19]: 30 | Plant response rating, Ducksalad [11, 16]: 0 | Plant response rating, Ducksalad [11, 17]: 0 | Plant response rating, Ducksalad [11, 18]: 50 | Plant response rating, Ducksalad [11, 19]: 75 | Plant response rating, Barnyardgrass [12, 16]: 0 | Plant response rating, Barnyardgrass [12, 17]: 0 | Plant response rating, Barnyardgrass [12, 18]: 0 | Plant response rating, Barnyardgrass [12, 19]: 0
